{"source": "patent US8410085B2", "about": "“Phospholipid compositions and uses thereof” (Baylor College of Medicine, priority 2007, dated 2013)", "key": {"[1]": {"test_system": "hepatic expression of Cyp7A1, Cyp8B1, mSR-BI, SHP", "assay": "hepatic gene expression (Q-PCR) in wild type mice after oral gavage", "type": "in vivo, mouse", "conditions": "100 mg/kg oral, five times over three days", "source_text": "(§1) Total liver RNA was isolated and prepared for the cDNA. […] Total liver RNA was isolated and prepared for cDNA."}, "[2]": {"test_system": "wild type male mice", "assay": "bile acids, serum glucose and NEFA in wild type mice after oral gavage", "type": "in vivo, mouse", "conditions": "100 mg/kg oral"}, "[3]": {"test_system": "LRH-1", "assay": "hepatic gene expression in LRH-1 f/f mice infected with Ad-Cre", "type": "in vivo, mouse", "conditions": "100 mg/kg oral, 100 mg/kg", "source_text": "as §1"}, "[4]": {"test_system": "LRH-1 target Cyp8B1", "assay": "hCYP8B1 expression by Q-PCR in C3A HepG2 cells"}, "[5]": {"biological_target": "mouse LRH-1 (Mus musculus, UniProt P45448)", "assay": "mouse LRH-1 transactivation, reporter cotransfection"}, "[6]": {"biological_target": "TRβ (Homo sapiens, UniProt P10828)", "assay": "nuclear receptor cotransfection (RE-tk-luc), HeLa cells", "conditions": "100 μM"}, "[7]": {"biological_target": "RARβ (Homo sapiens, UniProt P10826)", "sequence (P10826 whole entry, species assumed)": "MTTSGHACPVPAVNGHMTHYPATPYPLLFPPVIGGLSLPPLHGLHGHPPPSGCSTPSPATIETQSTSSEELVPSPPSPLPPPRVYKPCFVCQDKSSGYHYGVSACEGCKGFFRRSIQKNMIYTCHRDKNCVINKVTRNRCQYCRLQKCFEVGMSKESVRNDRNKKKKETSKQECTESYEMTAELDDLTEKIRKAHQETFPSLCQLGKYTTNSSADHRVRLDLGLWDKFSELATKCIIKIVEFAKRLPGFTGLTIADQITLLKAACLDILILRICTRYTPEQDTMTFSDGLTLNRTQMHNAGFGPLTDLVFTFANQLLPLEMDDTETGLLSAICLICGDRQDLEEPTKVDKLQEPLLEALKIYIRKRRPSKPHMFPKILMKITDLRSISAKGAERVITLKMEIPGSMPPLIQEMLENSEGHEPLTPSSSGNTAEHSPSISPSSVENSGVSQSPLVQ", "assay": "nuclear receptor cotransfection (RE-tk-luc), HeLa cells", "conditions": "100 μM"}, "[8]": {"biological_target": "RXRα (Homo sapiens, UniProt P19793)", "assay": "nuclear receptor cotransfection (RE-tk-luc), HeLa cells", "conditions": "100 μM"}, "[9]": {"biological_target": "PPARα (Homo sapiens, UniProt Q07869)", "sequence (Q07869 whole entry, species assumed)": "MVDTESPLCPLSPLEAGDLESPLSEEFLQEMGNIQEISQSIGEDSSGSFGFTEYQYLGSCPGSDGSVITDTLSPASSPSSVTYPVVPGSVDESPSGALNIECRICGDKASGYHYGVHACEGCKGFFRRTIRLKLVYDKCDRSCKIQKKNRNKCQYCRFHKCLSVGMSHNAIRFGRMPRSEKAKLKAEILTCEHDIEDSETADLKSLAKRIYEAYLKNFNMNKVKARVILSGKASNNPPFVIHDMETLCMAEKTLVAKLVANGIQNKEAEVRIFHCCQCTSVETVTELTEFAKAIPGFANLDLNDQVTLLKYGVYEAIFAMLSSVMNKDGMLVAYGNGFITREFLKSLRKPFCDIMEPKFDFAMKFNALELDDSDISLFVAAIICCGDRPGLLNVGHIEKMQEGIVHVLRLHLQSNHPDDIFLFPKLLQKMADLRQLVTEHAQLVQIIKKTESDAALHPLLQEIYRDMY", "assay": "nuclear receptor cotransfection (RE-tk-luc), HeLa cells", "conditions": "100 μM"}, "[10]": {"biological_target": "PPARδ (Homo sapiens, UniProt Q03181)", "assay": "nuclear receptor cotransfection (RE-tk-luc), HeLa cells", "conditions": "100 μM"}, "[11]": {"biological_target": "PPARγ (Homo sapiens, UniProt P37231)", "sequence (P37231 whole entry, species assumed)": "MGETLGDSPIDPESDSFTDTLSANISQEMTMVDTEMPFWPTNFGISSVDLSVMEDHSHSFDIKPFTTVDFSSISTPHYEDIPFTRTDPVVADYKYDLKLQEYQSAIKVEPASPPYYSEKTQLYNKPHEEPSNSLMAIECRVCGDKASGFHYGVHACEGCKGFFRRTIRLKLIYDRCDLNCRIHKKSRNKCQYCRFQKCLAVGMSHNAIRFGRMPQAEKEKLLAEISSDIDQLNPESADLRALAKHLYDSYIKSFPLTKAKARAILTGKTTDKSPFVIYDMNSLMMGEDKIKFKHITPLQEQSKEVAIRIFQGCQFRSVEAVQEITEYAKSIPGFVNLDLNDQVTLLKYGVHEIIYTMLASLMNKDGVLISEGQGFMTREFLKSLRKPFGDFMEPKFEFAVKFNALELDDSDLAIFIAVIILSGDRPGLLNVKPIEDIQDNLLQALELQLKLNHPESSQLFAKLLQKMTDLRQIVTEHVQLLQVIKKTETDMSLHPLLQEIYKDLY", "assay": "nuclear receptor cotransfection (RE-tk-luc), HeLa cells", "conditions": "100 μM"}, "[12]": {"biological_target": "FXR (Homo sapiens, UniProt Q96RI1)", "assay": "nuclear receptor cotransfection (RE-tk-luc), HeLa cells", "conditions": "100 μM"}, "[13]": {"biological_target": "LXRα (Homo sapiens, UniProt Q13133)", "assay": "nuclear receptor cotransfection (RE-tk-luc), HeLa cells", "conditions": "100 μM"}, "[14]": {"biological_target": "ERα (Homo sapiens, UniProt P03372)", "sequence (P03372 whole entry, species assumed)": "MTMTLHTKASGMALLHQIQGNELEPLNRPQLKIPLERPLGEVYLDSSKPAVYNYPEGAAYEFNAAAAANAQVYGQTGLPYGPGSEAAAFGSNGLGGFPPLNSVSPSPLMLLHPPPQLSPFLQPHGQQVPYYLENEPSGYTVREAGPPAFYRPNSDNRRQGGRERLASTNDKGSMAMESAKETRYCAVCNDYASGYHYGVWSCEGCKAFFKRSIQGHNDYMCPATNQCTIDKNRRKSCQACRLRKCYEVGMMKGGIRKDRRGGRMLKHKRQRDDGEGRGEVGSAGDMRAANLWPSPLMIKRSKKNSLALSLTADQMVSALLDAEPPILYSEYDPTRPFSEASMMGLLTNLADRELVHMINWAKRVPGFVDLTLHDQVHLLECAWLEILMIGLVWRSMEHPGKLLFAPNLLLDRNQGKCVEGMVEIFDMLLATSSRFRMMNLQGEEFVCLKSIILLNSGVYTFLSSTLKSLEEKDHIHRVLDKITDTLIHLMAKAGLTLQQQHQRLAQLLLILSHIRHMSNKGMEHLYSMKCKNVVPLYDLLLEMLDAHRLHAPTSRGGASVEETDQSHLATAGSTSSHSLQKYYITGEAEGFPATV", "assay": "nuclear receptor cotransfection (RE-tk-luc), HeLa cells", "conditions": "100 μM"}, "[15]": {"biological_target": "mouse CAR (Mus musculus, UniProt O35627)", "sequence (O35627 whole entry)": "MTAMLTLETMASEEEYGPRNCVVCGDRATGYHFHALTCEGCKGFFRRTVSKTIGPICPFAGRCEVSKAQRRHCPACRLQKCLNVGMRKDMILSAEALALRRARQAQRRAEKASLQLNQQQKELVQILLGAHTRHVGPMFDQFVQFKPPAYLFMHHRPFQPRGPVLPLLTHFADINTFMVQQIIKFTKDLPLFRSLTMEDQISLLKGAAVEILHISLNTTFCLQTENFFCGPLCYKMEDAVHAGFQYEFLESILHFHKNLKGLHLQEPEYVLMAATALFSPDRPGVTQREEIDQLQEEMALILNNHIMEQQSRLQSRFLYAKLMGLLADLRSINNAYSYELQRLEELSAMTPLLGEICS", "assay": "nuclear receptor cotransfection (RE-tk-luc), HeLa cells", "conditions": "100 μM"}, "[16]": {"biological_target": "human CAR (Homo sapiens, UniProt Q14994)", "sequence (Q14994 whole entry)": "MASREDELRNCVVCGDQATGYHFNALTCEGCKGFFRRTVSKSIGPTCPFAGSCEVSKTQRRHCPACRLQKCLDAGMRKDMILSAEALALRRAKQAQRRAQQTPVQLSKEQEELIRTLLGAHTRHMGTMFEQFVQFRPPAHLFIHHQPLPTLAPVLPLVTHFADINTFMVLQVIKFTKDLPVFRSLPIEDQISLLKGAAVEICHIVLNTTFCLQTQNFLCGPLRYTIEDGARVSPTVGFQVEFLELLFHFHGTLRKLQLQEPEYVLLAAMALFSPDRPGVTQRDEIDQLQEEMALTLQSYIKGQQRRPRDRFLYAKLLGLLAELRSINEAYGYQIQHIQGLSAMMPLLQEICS", "assay": "nuclear receptor cotransfection (RE-tk-luc), HeLa cells", "conditions": "100 μM"}, "[17]": {"biological_target": "human PXR (Homo sapiens, UniProt O75469)", "assay": "nuclear receptor cotransfection (RE-tk-luc), HeLa cells", "conditions": "100 μM"}, "[18]": {"biological_target": "T1, LRH-1 (Homo sapiens, UniProt O00482)", "T1 sequence (O00482 whole entry)": "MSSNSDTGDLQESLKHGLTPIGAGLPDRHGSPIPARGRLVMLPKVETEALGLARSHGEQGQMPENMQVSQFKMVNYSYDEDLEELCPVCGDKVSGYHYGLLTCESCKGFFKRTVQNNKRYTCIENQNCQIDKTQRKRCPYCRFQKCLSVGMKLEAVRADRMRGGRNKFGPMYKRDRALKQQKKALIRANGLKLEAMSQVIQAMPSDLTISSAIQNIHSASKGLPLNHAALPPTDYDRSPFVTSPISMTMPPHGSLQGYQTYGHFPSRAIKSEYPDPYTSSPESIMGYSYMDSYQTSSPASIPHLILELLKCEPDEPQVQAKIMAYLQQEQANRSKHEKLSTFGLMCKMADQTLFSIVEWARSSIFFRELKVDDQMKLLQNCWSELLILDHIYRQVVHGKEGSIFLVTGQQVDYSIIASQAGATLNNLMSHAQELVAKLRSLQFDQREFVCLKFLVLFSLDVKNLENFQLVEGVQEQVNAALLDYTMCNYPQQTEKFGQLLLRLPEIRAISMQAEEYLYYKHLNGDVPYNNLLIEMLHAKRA", "assay": "LRH-1 Luc reporter in C3A HepG2 cells (endogenous hLRH-1)", "conditions": "C3A/HepG2 cells or cells with non-target control siRNAs"}, "[19]": {"biological_target": "T1, LRH-1", "assay": "human LRH-1 transactivation, HeLa cotransfection with LRH-1/SF-1 response element luciferase reporter", "type": "cell-based", "set-up": "expressed in transfected cells; host or cells: HeLa (A1, A3)", "conditions": "HeLa cells", "procedure": "Controls (vector only and no lipid) are as indicated. […] Cells were treated with 100 μM of the indicated PCs and luciferase expression (RLU, relative light units) was normalized using an internal β-galactosidase control. vec, empty vector; −, ethanol solvent control.\nHeLa cells were transfected with an hLRH-1 expression vector along with mSHP1080-Luc reporter. […] Oct4-PPmut Luc is identical to Oct4-PP Luc except for the insertion of point mutations in the DR0 element. […] HeLa cells were cotransfected with various nuclear receptors and the reporter plasmid (RE-tk-luc). […] Data are expressed for each reporter as fold activation of normalized luciferase activity relative to veh-treated cells.\nA number of different phosphatidylcholine (PC) species were screened for effects on human LRH-1 transactivation in HeLa cell cotransfections with a synthetic luciferase reporter containing multiple copies of an LRH-1/SF-1 response element."}, "[20]": {"biological_target": "SF-1 (Homo sapiens, UniProt Q13285)", "assay": "SF-1 transactivation, reporter cotransfection in HeLa cells", "conditions": "100 μM"}, "[21]": {"biological_target": "T1, LRH-1", "assay": "mouse SHP promoter (mSHP1080-Luc) activation by hLRH-1 in HeLa cells", "conditions": "100 μM"}, "[22]": {"biological_target": "T1, LRH-1", "conditions": "CV-1 and HEK293T cells, compared with HeLa"}, "[23]": {"biological_target": "GST-hLRH-1 LBD / SRC-3 (Homo sapiens, UniProt O00482)", "sequence (O00482 300-539 limits assumed)": "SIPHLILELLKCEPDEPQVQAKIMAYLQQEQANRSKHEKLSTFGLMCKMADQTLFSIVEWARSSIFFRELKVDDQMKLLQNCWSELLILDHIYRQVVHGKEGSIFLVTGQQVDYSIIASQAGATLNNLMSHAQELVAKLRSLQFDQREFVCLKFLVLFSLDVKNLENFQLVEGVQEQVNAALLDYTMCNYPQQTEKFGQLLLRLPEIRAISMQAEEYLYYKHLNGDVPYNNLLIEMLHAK", "sequence (Q9Y6Q9 whole entry partner, the tested form may be a part)": "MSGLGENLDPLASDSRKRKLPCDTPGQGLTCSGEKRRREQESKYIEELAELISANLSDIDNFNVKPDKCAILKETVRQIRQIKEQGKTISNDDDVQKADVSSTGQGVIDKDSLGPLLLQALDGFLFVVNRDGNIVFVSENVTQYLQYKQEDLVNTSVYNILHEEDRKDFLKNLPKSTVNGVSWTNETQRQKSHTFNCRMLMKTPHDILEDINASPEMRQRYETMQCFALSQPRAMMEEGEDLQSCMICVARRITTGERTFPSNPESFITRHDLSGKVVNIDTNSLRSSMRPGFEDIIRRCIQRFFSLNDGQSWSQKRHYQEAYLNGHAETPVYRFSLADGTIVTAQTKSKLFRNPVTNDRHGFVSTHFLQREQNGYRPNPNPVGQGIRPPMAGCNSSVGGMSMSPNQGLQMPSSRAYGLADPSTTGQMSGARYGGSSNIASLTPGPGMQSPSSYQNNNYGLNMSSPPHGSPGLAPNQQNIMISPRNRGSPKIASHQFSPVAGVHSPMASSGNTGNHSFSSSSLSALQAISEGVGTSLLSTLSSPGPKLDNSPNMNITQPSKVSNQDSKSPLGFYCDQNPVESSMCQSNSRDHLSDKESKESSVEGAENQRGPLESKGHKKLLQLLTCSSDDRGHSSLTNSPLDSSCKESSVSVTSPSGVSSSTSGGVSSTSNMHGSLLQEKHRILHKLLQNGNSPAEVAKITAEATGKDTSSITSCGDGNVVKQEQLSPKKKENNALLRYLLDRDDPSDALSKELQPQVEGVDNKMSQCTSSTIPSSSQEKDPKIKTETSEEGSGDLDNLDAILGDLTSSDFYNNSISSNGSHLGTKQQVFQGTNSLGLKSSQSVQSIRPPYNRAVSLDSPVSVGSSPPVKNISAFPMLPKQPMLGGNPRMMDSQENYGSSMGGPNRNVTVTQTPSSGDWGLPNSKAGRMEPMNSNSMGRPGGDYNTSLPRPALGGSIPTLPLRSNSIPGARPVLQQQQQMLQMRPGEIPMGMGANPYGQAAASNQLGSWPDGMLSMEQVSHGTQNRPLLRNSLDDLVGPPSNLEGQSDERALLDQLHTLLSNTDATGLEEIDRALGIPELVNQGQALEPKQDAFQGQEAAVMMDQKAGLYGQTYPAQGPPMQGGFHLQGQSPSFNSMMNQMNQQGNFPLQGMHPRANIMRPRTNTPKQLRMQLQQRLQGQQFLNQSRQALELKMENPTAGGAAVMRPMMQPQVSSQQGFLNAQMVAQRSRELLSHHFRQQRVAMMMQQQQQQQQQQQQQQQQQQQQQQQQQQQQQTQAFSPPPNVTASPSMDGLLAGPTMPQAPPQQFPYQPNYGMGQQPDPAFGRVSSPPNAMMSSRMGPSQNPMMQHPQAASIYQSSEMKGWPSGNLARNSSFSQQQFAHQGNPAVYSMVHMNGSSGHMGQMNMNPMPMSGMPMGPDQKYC", "assay": "GST pulldown, GST-hLRH-1 LBD with in vitro translated 35S-labeled SRC-3"}, "[24]": {"biological_target": "T1, LRH-1", "assay": "Oct4 proximal promoter (Oct4-PP Luc) activation by hLRH-1 in COS-1 cells"}, "[25]": {"biological_target": "hLRH-1 LBD / SRC-3 receptor interaction domain (Homo sapiens, UniProt O00482)", "assay": "mammalian two-hybrid assay, VP16-hLRH1 LBD with Gal4-SRC3 RID in HeLa cells"}}, "note": "“And” between values parts separate entries of the source, which are not always exact repeats. Equal values may be shown once. “Also recorded” adds a separate entry of the source.", "data": [{"smiles": "CCCCCCCCCCC(=O)OCC(COP(=O)([O-])OCC[N+](C)(C)C)OC(=O)CCCCCCCCCC", "note": "(stereo not drawn) [DUPC, diundecanoylphosphatidylcholine]", "values": [{"measurement": "hepatic expression of Cyp7A1", "setting": "[1]", "result": "significantly induced"}, {"measurement": "hepatic expression of Cyp8B1", "setting": "[1]", "result": "significantly induced"}, {"measurement": "hepatic expression of SHP", "setting": "[1]", "result": "repressed"}, {"measurement": "hepatic expression of mSR-BI", "setting": "[1]", "result": "significantly induced"}, {"measurement": "liver bile acids", "setting": "[2]", "result": "somewhat lower"}, {"measurement": "serum bile acid levels", "setting": "[2]", "result": "substantially elevated"}, {"measurement": "serum free fatty acids", "setting": "[2]", "result": "decreased levels"}, {"measurement": "serum glucose levels", "setting": "[2]", "result": "decreased serum glucose levels"}, {"measurement": "total bile acid pool", "setting": "[2]", "result": "significant increase"}, {"measurement": "hepatic gene expression response when LRH-1 gene removed by Cre", "setting": "[3]", "result": "not observed; also recorded: completely absent"}, {"measurement": "expression of Cyp8B1", "setting": "[4]; C3A/HepG2 cells or cells with non-target control siRNAs", "result": "modestly but significantly induced"}, {"measurement": "Cyp8B1 response when LRH-1 expression is knocked down", "setting": "[4]; siRNA hLRH-1", "result": "lost"}, {"measurement": "mouse LRH-1 response versus human LRH-1", "setting": "[5]", "result": "essentially equivalent responses"}, {"measurement": "activation or inhibition of TRβ", "setting": "[6]", "result": "did not activate or inhibit"}, {"measurement": "activation or inhibition of RARβ", "setting": "[7]", "result": "did not activate or inhibit"}, {"measurement": "activation or inhibition of RXRα", "setting": "[8]", "result": "did not activate or inhibit"}, {"measurement": "activation or inhibition of PPARα", "setting": "[9]", "result": "did not activate or inhibit"}, {"measurement": "activation or inhibition of PPARδ", "setting": "[10]", "result": "did not activate or inhibit"}, {"measurement": "activation or inhibition of PPARγ", "setting": "[11]", "result": "did not activate or inhibit"}, {"measurement": "activation or inhibition of FXR", "setting": "[12]", "result": "did not activate or inhibit"}, {"measurement": "activation or inhibition of LXRα", "setting": "[13]", "result": "did not activate or inhibit"}, {"measurement": "activation or inhibition of ERα", "setting": "[14]", "result": "did not activate or inhibit"}, {"measurement": "activation or inhibition of mouse CAR", "setting": "[15]", "result": "did not activate or inhibit"}, {"measurement": "activation or inhibition of human CAR", "setting": "[16]", "result": "did not activate or inhibit"}, {"measurement": "activation or inhibition of human PXR", "setting": "[17]", "result": "did not activate or inhibit"}, {"measurement": "LRH-1 Luc luciferase activity", "setting": "[18]", "result": "increased luciferase"}, {"measurement": "LRH-1 transactivation (luciferase)", "setting": "[19]; 100 μM", "result": "responses"}, {"measurement": "EC50", "setting": "[19]; reporter gene, dose response 1-250 μM, read-out: EC50 for activation of hLRH-1", "result": "~60 µM and 57 µM"}, {"measurement": "SF-1 activation", "setting": "[20]", "result": "activate SF-1"}, {"measurement": "increase of LRH-1 transactivation of the native mouse SHP promoter", "setting": "[21]", "result": "approximately 2 fold"}, {"measurement": "LRH-1 transactivation response", "setting": "[22]", "result": "similar, but lesser responses"}, {"measurement": "interaction of GST-LRH1 with SRC-3", "setting": "[23]; GST pulldown, 100 μM", "result": "further increased"}, {"measurement": "increase of SRC-3 binding", "setting": "[23]; PhosphorImager quantitation", "result": "approximately 3 fold"}, {"measurement": "response with the Oct4 promoter", "setting": "[24]; COS-1 cells, Oct4-PP Luc", "result": "induced a similar response"}, {"measurement": "activation of Oct4-PPmut Luc", "setting": "[24]; point mutations in the DR0 element", "result": "eliminates activation"}, {"measurement": "interaction of hLRH-1 LBD with SRC-3 RID", "setting": "[25]", "result": "stimulated"}]}]}
